Series [1] has as its system Staphylococcus aureus ATCC 43300. The series is described as follows: Micro-dilution broth MIC, Staphylococcus aureus. The series is classed as cell-based. The note with it: ATCC43300, 24 h, 37 °C, read-out: Minimum Inhibitory Concentrations MIC. The procedure, abridged: (§1)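 Micro-dilution in Mueller-Hinton broth, with compounds added from an ethanol stock to give 10–80 µg/mL. Inocula were standardised to 0.5 McFarland (1.5 × 10^8 CFU), and a broth-only well served as the growth control. Strains were precultured aerobically on Columbia agar at 37 °C for 24 h.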

The test system of series [2] is Enterococcus faecalis ATCC 51299. The series is described as follows: Micro-dilution broth MIC, Enterococcus faecalis. The class given is cell-based. The note with it: ATCC51299, 24 h, 37 °C, read-out: Minimum Inhibitory Concentrations MIC. The procedure, abridged:
as §1

The subject of series [3] is Enterococcus faecium ATCC 35667. The series is described as follows: Micro-dilution broth MIC, Enterococcus faecium. The class given is cell-based. The note with it: ATCC35667, 24 h, 37 °C, read-out: Minimum Inhibitory Concentrations MIC. The procedure, abridged:
as §1

Series [4] has as its system Escherichia coli ATCC 25922. The series is described as follows: Micro-dilution broth MIC, Escherichia coli. The series is classed as cell-based. The note with it: ATCC25922, 24 h, 37 °C, read-out: Minimum Inhibitory Concentrations MIC. The procedure, abridged: as §1
Series [5] has as its system Klebsiella pneumoniae ATCC 700603. The series is described as follows: Micro-dilution broth MIC, Klebsiella pneumoniae. The class given is cell-based. As to conditions: ATCC700603, 24 h, 37 °C, read-out: Minimum Inhibitory Concentrations MIC. The procedure, abridged: as §1
The test system of series [6] is Acinetobacter baumannii ATCC 19606. The series is described as follows: Micro-dilution broth MIC, Acinetobacter baumannii. The class given is cell-based. The note with it: ATCC19606, 24 h, 37 °C, read-out: Minimum Inhibitory Concentrations MIC. The procedure, abridged:
as §1

For another series, the system named is Malignant Melanoma MEWO. The series is described as follows: MTT viability, MEWO. The series is classed as cell-based, human. As to conditions: Homo sapiens, 24 h, range 10–1000 µM, read-out: half maximal inhibitory concentration (IC50), interpolated. An outline of the steps:
(§2)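 Attached cells (1 × 10^4 per 100 µL) received test compounds for 24 h, then MTT for a further 4 h. Dissolved formazan was quantified by absorbance at 570 nm. Values are treated/control OD ratios, means ± SD.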

Series [7] deals with Colorectal Adenocarcinoma HT29. The series is described as follows: MTT viability, HT29. The class given is cell-based, human. As to conditions: Homo sapiens, HT-29, 24 h, range 10–1000 µM, read-out: half maximal inhibitory concentration (IC50), interpolated. The procedure, abridged:
as §2

For series [8], the system named is Promyelocytic Leukaemia HL-60. The series is described as follows: MTT viability, HL-60. The series is classed as cell-based, human. As to conditions: Homo sapiens, HL-60, 24 h, HL-60, MTT, range 10–1000 µM, read-out: half maximal inhibitory concentration (IC50), interpolated. The procedure, abridged:
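Viability is given as the optical density ratio of treated to control wells after 24 h compound treatment at 37 °C. Formazan from a 4 h MTT incubation is solubilised with SDS/DMF and measured at 570 nm.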

The next series relates to Fibroblasts HFIG. The series is described as follows: MTT viability, HFIG. The series is classed as cell-based, human. The note with it: Homo sapiens, Fibroblast, 24 h, range 10–1000 µM, read-out: half maximal inhibitory concentration (IC50), interpolated. An outline of the steps: as §2
The next series has as its system Keratinocytes HaCaT. The series is described as follows: MTT viability, HaCaT. The class given is cell-based, human. As to conditions: Homo sapiens, 24 h, range 10–1000 µM, read-out: half maximal inhibitory concentration (IC50), interpolated. The procedure, abridged: as §2
The next series can be described thus: MTT viability, IEC6. The note with it: rat, IEC-6 small intestine epithelial cells, 1000 µM (IC50 exceeded 1000 µM), read-out: viability ± standard deviation at 1000 µM. The series is classed as cell-based. An outline of the steps:
as §2

Series [9] deals with Staphylococcus aureus FDA209P. Further details: method as in PMID 19078849. As to conditions: 1 × 10^5 CFU, 48 h with shaking, turbidimetric; cited from earlier work.
In series [10] the test system is Mycobacterium smegmatis mc^2 155 ATCC 700084. Further details: method as in PMID 21042264. The note with it: micro-dilution, NCCLS guidelines; cited from earlier work.
In series [11] the test system is non-small cell lung cancer cells H460. Further details: method as in PMID 12753732. As to conditions: cited from earlier work.
Series [12] relates to non-small cell lung cancer cells A549. Also noted: method as in PMID 12753732. As to conditions: cited from earlier work.

Each structure is given as a SMILES string. Converted amounts (≈) assume the structure as drawn.

Consider `CC(C)=CCC/C(C)=C/CC/C(C)=C/CO` [Farnesol (4), farnesol, reference compound], for which the MIC is 26 µg/mL (≈ 117 µM) in series [1]; 18 µg/mL (≈ 80.9 µM) in series [2]; 16 µg/mL (≈ 72 µM) in series [3]; 28 µg/mL (≈ 126 µM) in series [4]; 16 µg/mL (≈ 72 µM) in series [5]; 18 µg/mL (≈ 80.9 µM) in series [6]. In addition, in [10], the MIC is on record as 64 µg/mL (≈ 288 µM). Moreover, the IC50 in the series with Malignant Melanoma MEWO is 378 µM; in series [7], 930 µM; in series [8], 54 µM; with Fibroblasts HFIG, 350 µM; in the series with Keratinocytes HaCaT it was 489 µM; in series [11] it was ~4.5 µM. In addition, the IC50 in series [12] was ~4.5 µM. Further, the viability at 24 h, 1000 µM in the series “MTT viability, IEC6” was determined as 58%. The “concentration at which active” value in series [9] was ≥ 10 µg/mL.

Source of the values: PMC6272674, “Selected Compounds Structurally Related to Acyclic Sesquiterpenoids and Their Antibacterial and Cytotoxic Activity” (Molecules, 2015).
